Measured values: US20240148728A1, “NOVEL METHOD TO BLOCK IN[…] DEATH AND IL-1BETA SECRETION CAUSED BY […] UV I[…] GENETIC AND CHEMICAL INHIBITORS OF ZAKA AND THE NLRP1 INFLAMMASOME” (priority 2021, published 2024)

Tests used:
Type in all cases: cell-based, human
[1] = tested on: immortalized keratinocytes (N-TERT); experiment: Pyroptosis / apoptosis in N-TERT keratinocytes (morphology, ASC-GFP, PI, Annexin V, immunoblot); conditions: for morphological hallmarks of inflammasome activation and pyroptotic cell death: membrane ballooning, ASC-GFP specks, PI uptake
Description: (§1) The following antibodies were used in this study: cleaved PARP1 (Abclonal, #WH162766), Cleaved CASP3 (Abclonal, #WH154646), Full length GSDMD-FL (Abcam, #ab210070), IL1β p17 specific (CST, #83186S), CARD8 (Abcam, CARD8-NT: ab19485, CARD8-CT: ab241186), DPP9 (Abcam, ab226334), c-Myc (Santa Cruz Biotechnology, #sc-40), HA tag (Santa Cruz Biotechnology, #sc-805), GAPDH (Santa Cruz Biotechnology, #sc-47724), ASC (Adipogen, #AL-177), CASP1 (Santa Cruz Biotechnology, #sc-622), 11_1B (R&D systems, #AF-201), FLAG (SigmaAldrich, #F3165), NLRP1 (R&D systems, #AF6788), IL18 (Abcam ab207324), cleaved GSDMD-NT (Asp275) (Cell Signaling Technology, #36425), RPL31 (Abclonal, #WH162766), CASP7 (Abcam, ab255818), CASP8 (Abcam, ab32397), cleaved CASP3 (Cell Signaling Technology, #9664). All horseradish peroxidase (HRP)— conjugated secondary antibodies were purchased from Jackson Immunoresearch (goat anti-mouse IgG: 115-035-166; goat anti-rabbit IgG: 111-035-144; and donkey anti-goat IgG: 705-005-147). Blue-Native PAGE was carried out using the Native-PAGE system (ThermoFisher) with 10-20 μg of total lysate. For SDS-PAGE using whole cell lysates, cells were resuspended in tris-buffered saline 1% NP-40 with protease inhibitors (Thermo Scientific, #78430). Protein concentration was determined using the Bradford assay (Thermo Scientific, #23200) and […] of protein loaded, a part from cleaved GSDMD-NT visualisation where […] of protein was used. All primary antibodies were used at 250 ng/ml. Visualisation of ASC oligomerization was previously described (Robinson et al., 2020). For analysis of IL1β and IL-18 cleavage in the media by immunoblotting, samples were concentrated using filtered centrifugation (Merck, Amicon Ultra, #UFC5003BIK). Protein samples were run using immunoblotting, and then visualized using a ChemiDoc Imaging system (Bio-Rad). PhosTag SDS-PAGE was carried out using homemade 10% SDS-PAGE gel, with addition of Phos-tag Acrylamide (Wako Chemicals, AAL-107) to a final concentration of 30 μM and manganese chloride(II) (Sigma-Aldrich, #63535) to 60 μM.
N-TERT-ASC-GFP cells were seeded at a cell density of 3000 cells/well of a 96 black well plate (PerkinElmer, CellCarrier-96 Ultra, #6055300). The next morning cells were treated with chemicals for 6 h or treated in the evening for 24 h before staining. 1 hour before observing the cells on the microscope the cells were stained with 1 μg/ml dilution of propidium iodide (PI, Abcam #ab14083), 10 ng/ml dilution of Hoechst 33342 (Life Technologies, #H21492) or stained with Annexin V Alexa Flour 647 (Life technologies, #A23204) according to the manufacturer's protocol. Stained cells were then imaged on a high content screening microscope (Perkin Elmer Operetta CLS imaging system). Images were then stored and analyzed using the Harmony software (Version 6). Fluorescent and brightfield images acquired on the Operetta high content screening microscope were further analyzed using a scoring system to categorize the percentages of live, apoptotic and pyroptotic cells. For 3 fields of view per treatment the number of live cells per field was counted from the merge of the brightfield and ASC-GFP channels. Only cells which contained ASC-GFP throughout the cytoplasm and nucleus were classed as “live”. The number of pyroptotic cells was calculated using the merge of the brightfield and ASC-GFP channels. Only the cells with GFP specks were classed as “pyroptotic”. The number of apoptotic cells was calculated using the merge of the brightfield, ASC-GFP and Annexin V channels. Cells that were stained positive for Annexin V but without a GFP speck were classified as “apoptotic”. Images of ASC-GFP specks were acquired in 3 random fields in 4′,6-diaminidino-2-phenylindole (DAPI, 358 nm/461) and GFP (469 nm/525 nm) channels using the EVOS microscope (FL Auto M5000, #AM F5000) according to the manufacturer's protocol. […]

[2] = tested on: N-TERT cells; experiment: Secreted IL1β / inflammasome activation in N-TERT cells; conditions: for effect on ANS- and TNFα+DT-triggered NLRP1 activation: N-TERTs, BTZ 0.5 μM, MLN4924 0.25 μM
Procedure: (§2) To measure secreted cytokine and chemokine levels a human IL1β enzyme linked immunosorbent assay (ELISA) kit (BD, #557953), human IL-18 ELISA kit (MBL, #7620) or an Immune Monitoring 65-Plex Human ProcartaPlex Panel (EPX650-10065-901) were used according to manufacturer's protocols. Further analysis of Luminex or ELISA profiling of samples was performed using heatmap and PCA analysis on Clustervis (biitdotcsdotutdotee/clustvis/) [Somani et al., Proceeding of SSIC (2019)].
as §1

[3] = tested on: 293T-ASC-GFP-NLRP1; conditions: for ASC-GFP speck formation, screen of cytotoxic chemicals: ANS 1 μM, LTM 1 μg/ml, STS 1 μM; for effect on ANS- and TNFα+DT-triggered NLRP1 activation: 293T-NLRP1-ASC-GFP reporter cells, BTZ 0.5 μM, MLN4924 0.25 μM
[4] = tested on: NLRP1-NT; experiment: NLRP1 cleavage / NLRP1-NT level by immunoblot
Description: as §1

[5] = tested on: N-TERT cells; experiment: UVB triggered cell death and IL-1beta release in N-TERT cells
Procedure: For UVA and UVB irradiation experiments, cells were seeded 24 hours prior to irradiation, and washed once in phosphate buffered saline pH 7.4 before being exposed to indicated dose of irradiation using a BIO-SUN microprocessor controlled, cooled UV irradiation system (BIO-SUN, Vilber). After exposure, PBS was replaced by keratinocyte medium and cells were incubated for indicated time.
as §2

[6] = tested on: NLRP1^DR; experiment: NLRP1 PYD-DR1 / NLRP1^DR phosphorylation (GFP fusion, immunoblot, PhosTag SDS-PAGE) in N-TERT cells
Description: as §1
Cells were directly harvested using Laemmli buffer, lysed with an ultrasonicator, and loaded into the Phos-tag gel to run. Once the run was completed, the polyacrylamide gel was washed in transfer buffer with 10 mM EDTA twice, subsequently washed without EDTA twice, blotted onto 0.45 μm PVDF membranes (Bio-rad), blocked with 3% milk, and incubated with primary and corresponding secondary antibodies.

COC(=O)C[C@](O)(CCC(C)(C)O)C(=O)O[C@@H]1C(OC)=C[C@]23CCCN2CCc2cc4c(cc2[C@H]13)OCO4 [harringtonin, Harringtonine]
morphological hallmarks of inflammasome activation and pyroptotic cell death [1]: none of the inhibitors that block the ribosome at the pre-elongation stages, including harringtonin, blasticidin and G418 caused any pyroptosis

CC[C@H]1CN2CCc3cc(OC)c(OC)cc3[C@@H]2C[C@@H]1C[C@H]1NCCc2cc(OC)c(OC)cc21 [emetine]
effect on ANS-induced IL1β secretion ([2]; 150 μM emetine): completely abrogated

CN(CC[C@H](N)CC(=O)N[C@H]1C=C[C@H](n2ccc(N)nc2=O)O[C@@H]1C(=O)O)C(=N)N [blasticidin, Blasticidin]
morphological hallmarks of inflammasome activation and pyroptotic cell death [1]: none of the inhibitors that block the ribosome at the pre-elongation stages, including harringtonin, blasticidin and G418 caused any pyroptosis

C/C(=C\[C@H](C)C(=O)C[C@H](O)CC1CC(=O)NC(=O)C1)[C@@H]1OC(=O)/C=C/CC/C=C/C=C\[C@@H]1C [LTM, Lactimidomycin]
mode of cell death (apoptosis / pyroptosis) ([1]; Annexin V staining and PI inclusion, immunoblot markers): caused both apoptosis and pyroptosis
morphological hallmarks of inflammasome activation and pyroptotic cell death [1]: rapidly induced the morphological hallmarks of inflammasome activation and pyroptotic cell death
fraction of pyroptotic cells ([1]; single cell level, compared with VbP): comparable to that induced by VbP
ASC-GFP speck formation, screen of cytotoxic chemicals [3]: identified two hits

CN[C@@H]1C[C@H]2O[C@@](C)([C@@H]1OC)n1c3ccccc3c3c4c(c5c6ccccc6n2c5c31)C(=O)NC4 [STS, Staurosporine]
ASC-GFP speck formation, screen of cytotoxic chemicals [3]: failed to induce ASC-GFP specks

NS(=O)(=O)OC[C@@H]1C[C@@H](n2ccc3c(N[C@H]4CCc5ccccc54)ncnc32)C[C@@H]1O [MLN4924, ((1S,2S,4R)-4-(4-(((S)-2,3-dihydro-1H-inden-1-yl)amino)-7H-pyrrolo[2,3-d]pyrimidin-7-yl)-2-hydroxycyclopentyl)methyl sulfamate]
effect on ribotoxin-triggered NLRP1-NT destabilization [4]: could be blocked
effect on ANS- and TNFα+DT-triggered NLRP1 activation [3]: abrogated ANS- and TNFα+DT-triggered NLRP1 activation
effect on ANS- and TNFα+DT-triggered NLRP1 activation [2]: abrogated ANS- and TNFα+DT-triggered NLRP1 activation
effect on UVB-dependent NLRP1 activation [5]: abrogated
effect on UVB triggered cell death (PI positive cells) ([5]; 18-hour incubation): blocks UVB triggered cell death and IL-1beta release
effect on UVB triggered IL-1beta release ([5]; IL1β ELISA of cell media): blocks UVB triggered cell death and IL-1beta release

Cc1cn(-c2cc(NC(=O)c3ccc(C)c(Nc4nccc(-c5cccnc5)n4)c3)cc(C(F)(F)F)c2)cn1 [Nilotinib, 4-methyl-N-[3-(4-methylimidazol-1-yl)-5-(trifluoromethyl)phenyl]-3-[(4-pyridin-3-ylpyrimidin-2-yl)amino]benzamide]
effect on ANS-dependent ASC-GFP speck formation ([3]; Nilotinib 0.1 μM): abrogated all measures of ANS- and DT-dependent inflammasome activation
NLRP1 PYD-DR1 phosphorylation under inhibitor [6]: loss of NLRP1 PYD-DR1 phosphorylation
effect on VbP-triggered pyroptosis [2]: had no discernible effect on VbP-triggered pyroptosis
effect on ANS- and DT-dependent inflammasome activation (ASC oligomerization, IL1β secretion) ([2]; wild-type N-TERT cells): abrogated all measures of ANS- and DT-dependent inflammasome activation

CC(C)C[C@H](NC(=O)[C@H](Cc1ccccc1)NC(=O)c1cnccn1)B(O)O [bortezomib, [(1R)-3-methyl-1-[[(2S)-3-phenyl-2-(pyrazine-2-carbonylamino)propanoyl]amino]butyl]boronic acid]
effect on ribotoxin-triggered NLRP1-NT destabilization [4]: could be blocked
effect on ANS- and TNFα+DT-triggered NLRP1 activation [3]: abrogated ANS- and TNFα+DT-triggered NLRP1 activation
effect on ANS- and TNFα+DT-triggered NLRP1 activation [2]: abrogated ANS- and TNFα+DT-triggered NLRP1 activation

CC1=C[C@H]2O[C@@H]3[C@H](O)C[C@](C)([C@@]2(CO)[C@H](O)C1=O)[C@]31CO1 [DON, deoxynivalenol]
morphological hallmarks of inflammasome activation and pyroptotic cell death [1]: caused prominent inflammasome activation and pyroptosis
NLRP1^DR hyperphosphorylation ([6]; NLRP1DR-GFP in N-TERT cells, PhosTag SDS-PAGE): also led to NLRP1^DR hyperphosphorylation
band shift (phosphorylation) of PYD-DR1-GFP ([6]; NLRP1 KO N-TERT cells expressing GFP-tagged PYD-DR1): band shift in PYD-DR1-GFP

CCCn1/c(=N/C(=O)c2cccc(C(N)=O)c2)[nH]c2ccccc21 [TAKinib]
effect on ANS-induced IL1β secretion ([2]; selective TAK1 inhibitor): does not have an effect on ANS-induced IL1β secretion
